From patent US11952368B2, “FAPI dimer compound, FAPI dimer-based positron emission tomography (PET) imaging agent for tumor diagnosis, and preparation method and use thereof” (XIAMEN UNIVERSITY, priority 2021, dated 2024)

Key:
HCC-PDX-2 = assay: PET imaging in HCC-PDX-2 model; assay type: in vivo, mouse; settings: HCC-PDX-2, 7.4 MBq via tail vein
Protocol: (§1) The PET imaging and biodistribution studies were conducted in HCC-PDX1 and HCC-PDX2 mouse models. The histological verification was first conducted, where the immunohistochemical staining and H&E staining were conducted for FAP and Ki67, a tumor tissue was digested for protein extraction, and the expression of FAP was detected by Western Blot. Verification results were shown in FIG. 6A-B, where the immunohistochemical staining result was shown in FIG. 6A and the Western Blot result was shown in FIG. 6B. […] Therefore, the models can be used for further mouse experiments.
The products of ^68Ga-2PEG(3)-FAPI-dimer and ^68Ga-FAPI-46 were each diluted to a concentration of 74 MBq/mL. 7.4 MBq of ^68Ga-2PEG(3)-FAPI-dimer or 7.4 MBq of ^68Ga-FAPI-46 was injected into the HCC-PDX model through the tail vein (3 parallel experiments per group). All PET scans were conducted with an Inveon small animal PET scanner (Siemens Preclinical Solution, USA). The dynamic PET imaging was conducted with a scan duration of 60 min and reconstructed frames of 10×30 s, 10×60 s, 10×120 s, and 9×160 s. The 10 min static PET imaging was conducted with acquisition time points of 0.5 h, 1 h, 2 h, and 4 h after injection. […] Region of interests (ROIs) in the tumor, liver, heart, kidney, and muscle were calculated on PET images to quantify radioactive signals.

HCC-PDX-1 [1] = assay: PET imaging in HCC-PDX-1 model; assay type: in vivo, mouse
Protocol: as §1
The products of ^68Ga-2PEG(3)-FAPI-dimer and ^68Ga-FAPI-46 were each diluted to a concentration of 74 MBq/mL. 7.4 MBq of ^68Ga-2PEG(3)-FAPI-dimer or 7.4 MBq of ^68Ga-FAPI-46 was injected into the HCC-PDX model through the tail vein (3 parallel experiments per group). All PET scans were conducted with an Inveon small animal PET scanner (Siemens Preclinical Solution, USA). The dynamic PET imaging was conducted with a scan duration of 60 min and reconstructed frames of 10×30 s, 10×60 s, 10×120 s, and 9×160 s. The 10 min static PET imaging was conducted with acquisition time points of 0.5 h, 1 h, 2 h, and 4 h after injection. For the blocking experiment, 30 nmol of unlabeled FAPI-46 was added to a ^68Ga-2PEG(3)-FAPI-dimer solution (with NS as a solvent) before injection. An image was iteratively reconstructed with 3D OPMAP 256.pPetRcn (Siemens) and converted into a % ID/g image. Region of interests (ROIs) in the tumor, liver, heart, kidney, and muscle were calculated on PET images to quantify radioactive signals.

[2] = Distribution, dosimetry and safety in healthy volunteers (PET/CT, OLINDA/EXM); assay type: in vivo, human
Protocol: This experiment was approved by the Clinical Research Ethics Committee of the First Affiliated Hospital of Xiamen University, and all subjects signed a written informed consent form. A dose of ^68Ga-2PEG(3)-FAPI-dimer for intravenous injection (1.8 MBq to 2.2 MBq [0.05 mCi to 0.06 mCi]/kg) was calculated according to a body weight of a subject. Data were acquired using a hybrid PET/CT scanner (Discovery MI, GE Healthcare, Milwaukee, WI, USA) at 10 min, 30 min, 60 min, and 180 min after intravenous injection. A maximum standard uptake value (SUVmax) was automatically calculated with ROIs drawn on a transaxial image. Safety data, including vital signs (blood pressure, pulse, respiratory rate, and body temperature) and adverse events, were acquired 4 h before and after the ^68Ga-2PEG(3)-FAPI-dimer was injected. […] The time-activity curve fitting and subsequent dose calculation were conducted using OLINDA/EXM v.1.1.

HCC-PDX-1 [3] = assay: Biodistribution in HCC-PDX-1 mice (gamma counter); assay type: in vivo, mouse; settings: for tumor uptake: HCC-PDX-1, 1.48 MBq
Protocol: HCC-PDX-1 mice were injected with 1.48 MBq of ^68Ga-2PEG(3)-FAPI-dimer, and 1 h and 4 h after the injection (3 parallel experiments per time point), major organs and tumors were isolated, weighed, and analyzed. The ^68Ga-FAPI-46 group (1.48 MBq) and blocking group (1.48 MBq ^68Ga-2PEG(3)-FAPI-dimer+30 nmol unlabeled FAPI-46) were compared in terms of biodistribution.

[4] = three healthy volunteers, i.v., OLINDA/EXM

uptake in normal organs (HCC-PDX-2; PET): low and decline rapidly
uptake and residence in tumor tissue compared with ^68Ga-FAPI-46 (HCC-PDX-2; PET 0.5 h, 1 h, 2 h, 4 h): better than
uptake in normal organs (HCC-PDX-1 [1]; HCC-PDX-1, 7.4 MBq via tail vein, PET): low and decline rapidly
uptake and residence in tumor tissue compared with ^68Ga-FAPI-46 (HCC-PDX-1 [1]; HCC-PDX-1, 7.4 MBq via tail vein, PET 0.5 h, 1 h, 2 h, 4 h): better than
blocking of tumor uptake by unlabeled FAPI-46 (HCC-PDX-1 [1]; two liver cancer PDX models (HCC-PDX-1 and HCC-PDX-2), 30 nmol unlabeled FAPI-46): can be blocked by unlabeled FAPI-46
tumor uptake in the blocking group (HCC-PDX-1 [3]; HCC-PDX-1, 1.48 MBq + 30 nmol unlabeled FAPI-46, 1 h after injection): 1.07±0.19 % ID/g
tumor uptake in the blocking group (HCC-PDX-1 [3]; HCC-PDX-1, 1.48 MBq + 30 nmol unlabeled FAPI-46, 4 h after injection): 1.14±0.15 % ID/g
tumor uptake (HCC-PDX-1 [3]; 1 h after injection): 8.97±0.32 % ID/g
tumor uptake (HCC-PDX-1 [3]; 4 h after injection): 7.61±0.64 % ID/g
SMILES: CN(CCCN1CCN(C(=O)COCCOCCOCCNC(=O)CCC(=O)N[C@@H](CCCCNC(=O)CN2CCN(CC(=O)[O-])CCN(CC(=O)[O-])CCN(CC(=O)[O-])CC2)C(=O)NCCOCCOCCOCC(=O)N2CCN(CCCN(C)c3ccc4nccc(C(=O)NCC(=O)N5CC(F)(F)C[C@H]5C#N)c4c3)CC2)CC1)c1ccc2nccc(C(=O)NCC(=O)N3CC(F)(F)C[C@H]3C#N)c2c1.[68Ga+3] [^68Ga-2PEG(3)-FAPI-dimer]
discomfort symptoms after injection (vital signs, adverse events) ([2]; i.v. 1.8 MBq to 2.2 MBq/kg, 4 h before and after injection): did not undergo any discomfort symptoms
Average value, Adrenal gland (dosimetry) [2, 4]: 7.98E−05 mSv/MBq
Average value, Ascending colon wall (dosimetry) [2, 4]: 2.79E−05 mSv/MBq
Average value, Bladder wall (dosimetry) [2, 4]: 1.04E−03 mSv/MBq
Average value, Brain (dosimetry) [2, 4]: 3.16E−05 mSv/MBq
Average value, Breast (dosimetry) [2, 4]: 6.36E−05 mSv/MBq
Average value, Descending colon wall (dosimetry) [2, 4]: 9.22E−04 mSv/MBq
Average value, Effective dose [2, 4]: 1.19E−02 mSv/MBq
Average value, Effective dose equivalent [2, 4]: 1.69E−02 mSv/MBq
Average value, Kidney (dosimetry) [2, 4]: 1.01E−04 mSv/MBq
Average value, Liver (dosimetry) [2, 4]: 1.65E−03 mSv/MBq
Average value, Lung (dosimetry) [2, 4]: 1.36E−03 mSv/MBq
Average value, Muscle (dosimetry) [2, 4]: 4.19E−05 mSv/MBq
Average value, Osteoblast (dosimetry) [2, 4]: 6.47E−05 mSv/MBq
Average value, Ovary (dosimetry) [2, 4]: 5.94E−04 mSv/MBq
Average value, Pancreas (dosimetry) [2, 4]: 7.61E−04 mSv/MBq
Average value, Red bone marrow (dosimetry) [2, 4]: 1.12E−03 mSv/MBq
Average value, Skin (dosimetry) [2, 4]: 1.22E−05 mSv/MBq
Average value, Small intestine (dosimetry) [2, 4]: 5.18E−05 mSv/MBq
Average value, Spleen (dosimetry) [2, 4]: 1.58E−04 mSv/MBq
Average value, Stomach wall (dosimetry) [2, 4]: 7.12E−04 mSv/MBq
Average value, Thymus (dosimetry) [2, 4]: 9.64E−06 mSv/MBq
Average value, Thyroid (dosimetry) [2, 4]: 3.11E−03 mSv/MBq
Average value, Uterus (dosimetry) [2, 4]: 1.27E−05 mSv/MBq
